12 compounds from patent US11345666B2, “Phenyl and pyridinyl substituted imidazoles as modulators of RORγT” (Janssen Pharmaceutica NV, priority 2018, dated 2022) can be followed below.

For this assay, the target named is full-length human RORγt (Homo sapiens (Human), UniProt P51449). As to the kind of experiment: RORγt (full-length human) reporter assay, conditions A or B. The format is cell-based. The following applies: for IC50: HEK293T cells, read-out: RORγt (FL) Reporter Assay A or B, IC50; for inhibition at 2 µM: 2 μM compound concentration (**); for inhibition at 6 µM: read-out: RORγt (FL) Reporter Assay A or B, % inhibition @ 6 μM, 6 μM compound concentration. The method, boiled down: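 HEK293T cells transiently co-transfected (PEI) with GAL4-DBD–RORγt, GAL4-firefly luciferase and CMV-Renilla reporters; condition A 35,000 cells/well, 170.5 ng DNA/well; condition B 8750 cells/well, 42.6 ng DNA/well.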

Setting [1] is: read-out: RORγt (FL) Reporter Assay A or B, % inhibition.
Setting [2] is: 0.22 μM compound concentration (******), read-out: RORγt (FL) Reporter Assay A or B, % inhibition.
Where [3] appears, read: 0.67 μM compound concentration (****), read-out: RORγt (FL) Reporter Assay A or B, % inhibition.

Read-outs that look alike come from different tables or passages of the source. Marks after values point to notes of the source that are not given here.

Chain of full-length human RORγt (P51449 other isoform, or with tags, fused parts or gaps): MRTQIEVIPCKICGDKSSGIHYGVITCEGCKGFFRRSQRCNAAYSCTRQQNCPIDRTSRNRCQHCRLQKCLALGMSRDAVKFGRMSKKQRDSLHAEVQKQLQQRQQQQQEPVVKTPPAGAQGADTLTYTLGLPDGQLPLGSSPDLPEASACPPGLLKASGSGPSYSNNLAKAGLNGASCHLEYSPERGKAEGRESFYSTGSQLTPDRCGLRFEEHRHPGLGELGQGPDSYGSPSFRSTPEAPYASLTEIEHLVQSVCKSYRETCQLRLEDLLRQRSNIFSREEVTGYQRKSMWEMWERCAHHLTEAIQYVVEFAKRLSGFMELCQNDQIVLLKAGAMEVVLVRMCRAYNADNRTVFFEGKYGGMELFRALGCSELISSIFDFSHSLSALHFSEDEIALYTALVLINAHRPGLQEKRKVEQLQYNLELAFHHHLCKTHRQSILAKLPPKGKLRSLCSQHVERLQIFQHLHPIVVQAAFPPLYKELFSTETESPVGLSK

In the case of `CCc1nc(C(=O)NC[C@H]2CC[C@H](S(C)(=O)=O)CC2)c(C)n1-c1ccc(CC(C)C(F)(F)F)cc1OC` (single isomer, unassigned) [Example 7], the IC50 worked out at 12 nM. Moreover, the inhibition at 0.22 µM (read-out: RORγt (FL) Reporter Assay A or B, % inhibition, 0.22 μM compound concentration (******)) is 91%.
With `CCc1nc(C(=O)NC[C@]2(O)CC[C@@H](S(C)(=O)=O)CC2)c(Cl)n1-c1c(F)cc(CC(C)C)cc1F` [Example 83, 5-Chloro-1-(2,6-difluoro-4-isobutylphenyl)-2-ethyl-N-(((1s,4s)-1-hydroxy-4-(methylsulfonyl)cyclohexyl)methyl)-1H-imidazole-4-carboxamide], the IC50 worked out at 120 nM. The inhibition at 2 µM under setting [1] was 23%.
Turning to `CCc1nc(C(=O)NC[C@H]2CC[C@H](S(C)(=O)=O)CC2)c(C#N)n1-c1ccc(CC(C)(C)C(F)(F)F)cc1OC(F)F` [Example 36, 5-Cyano-1-(2-(difluoromethoxy)-4-(3,3,3-trifluoro-2,2-dimethylpropyl)phenyl)-2-ethyl-N-(((1r,4r)-4-(methylsulfonyl)cyclohexyl)methyl)-1H-imidazole-4-carboxamide], the IC50 turned out to be 13 nM. For the same compound, under setting [1], the inhibition at 2 µM amounted to 101%.
With `CCc1nc(C(=O)NC[C@H]2CC[C@H](S(C)(=O)=O)CC2)c(F)n1-c1ccc(N[C@H](C)C(F)(F)F)cc1OC` [Example 12, 2-Ethyl-5-fluoro-1-(2-methoxy-4-(((R)-1,1,1-trifluoropropan-2-yl)amino)phenyl)-N-(((1r,4R)-4-(methylsulfonyl)cyclohexyl)methyl)-1H-imidazole-4-carboxamide], the IC50 amounted to 160 nM and the inhibition at 6 µM turned out to be 109%.
As for `CCc1nc(C(=O)NC[C@]2(O)CC[C@@H](S(C)(=O)=O)CC2)c(C#N)n1-c1ccc(CC(C)(C)C(F)(F)F)cc1OC(F)(F)F` [Example 111, 5-Cyano-2-ethyl-N-(((1s,4s)-1-hydroxy-4-(methylsulfonyl)cyclohexyl)methyl)-1-(4-(3,3,3-trifluoro-2,2-dimethylpropyl)-2-(trifluoromethoxy)phenyl)-1H-imidazole-4-carboxamide], the IC50 worked out at 86 nM and the inhibition at 6 µM was found to be 99%.
`CCc1nc(C(=O)NC[C@H]2CC[C@H](S(C)(=O)=O)CC2)c(Cl)n1-c1ncc(CC(C)(C)C(F)(F)F)cc1OC(F)F` [Example 2, 5-Chloro-1-(3-(difluoromethoxy)-5-(3,3,3-trifluoro-2,2-dimethylpropyl)pyridin-2-yl)-2-ethyl-N-((4-(methylsulfonyl)cyclohexyl)methyl)-1H-imidazole-4-carboxamide]: the IC50 is 12 nM. In addition, the inhibition at 1 µM (1 μM compound concentration (***), read-out: RORγt (FL) Reporter Assay A or B, % inhibition) turned out to be 84%.
`CCc1nc(C(=O)NC[C@H]2CC[C@H](S(C)(=O)=O)CC2)c(Cl)n1-c1ccc(N[C@H](C)C(F)(F)F)cc1OC` [Example 3, 5-Chloro-2-ethyl-1-(2-methoxy-4-(((R)-1,1,1-trifluoropropan-2-yl)amino)phenyl)-N-(((1r,4R)-4-(methylsulfonyl)cyclohexyl)methyl)-1H-imidazole-4-carboxamide]: the IC50 came to 36 nM. Further, the inhibition at 2 µM under setting [1] is 101%.
As to `CCc1nc(C(=O)NC[C@H]2CC[C@H](S(C)(=O)=O)CC2)c(Cl)n1-c1ccc(CCC(F)(F)F)cc1F` [Example 22, 5-Chloro-2-ethyl-1-(2-fluoro-4-(3,3,3-trifluoropropyl)phenyl)-N-(((1r,4r)-4-(methylsulfonyl)cyclohexyl)methyl)-1H-imidazole-4-carboxamide], the IC50 was found to be 15 nM. For the same compound, under setting [2], the inhibition at 0.22 µM stood at 38%.
In the case of `CCc1nc(C(=O)NC[C@]2(O)CC[C@@H](S(C)(=O)=O)CC2)c(C)n1-c1ccc(CC(C(F)(F)F)C(F)(F)F)cc1F` [Example 109, 2-Ethyl-1-(2-fluoro-4-(3,3,3-trifluoro-2-(trifluoromethyl)propyl)phenyl)-N-(((1s,4s)-1-hydroxy-4-(methylsulfonyl)cyclohexyl)methyl)-5-methyl-1H-imidazole-4-carboxamide], the IC50 worked out at 22 nM. Moreover, the inhibition at 0.67 µM under setting [3] came to 97%.
Take `CCc1nc(C(=O)NC[C@]2(O)CC[C@@H](S(C)(=O)=O)CC2)c(Cl)n1-c1ccc(CC(C(F)(F)F)C(F)(F)F)cc1F` [Example 100, 5-Chloro-2-ethyl-1-(2-fluoro-4-(3,3,3-trifluoro-2-(trifluoromethyl)propyl)phenyl)-N-(((1s,4s)-1-hydroxy-4-(methylsulfonyl)cyclohexyl)methyl)-1H-imidazole-4-carboxamide]: the IC50 stood at 6.7 nM. For the same compound, the inhibition at 0.22 µM under setting [2] is 100%.
Regarding `[2H]C([2H])([2H])Oc1cc(CC(C)(C)C(F)(F)F)ccc1-n1c(CC)nc(C(=O)NC[C@H]2CC[C@H](S(C)(=O)=O)CC2)c1C#N` [Example 27, 5-Cyano-2-ethyl-1-(2-(methoxy-d3)-4-(3,3,3-trifluoro-2,2-dimethylpropyl)phenyl)-N-(((1r,4r)-4-(methylsulfonyl)cyclohexyl)methyl)-1H-imidazole-4-carboxamide], the IC50 came to 18 nM. In addition, the inhibition at 0.67 µM under setting [3] stood at 97%.
As for `CCc1nc(C(=O)NC[C@H]2CC[C@H](S(C)(=O)=O)CC2)c(Cl)n1-c1ccc(CC(C)C(F)(F)F)cc1OC` (single isomer, unassigned) [Example 6, 5-Chloro-2-ethyl-1-((1S*)-2-methoxy-4-(3,3,3-trifluoro-2-methylpropyl)phenyl)-N-(((1r,4S)-4-(methylsulfonyl)cyclohexyl)methyl)-1H-imidazole-4-carboxamide], the IC50 was 6 nM. In addition, the “RORγt (FL) Reporter Assay A or B, % inhibition” value (0.67 μM compound concentration (****)) is on record as 99**** %.
